Legend:
Assay in all cases: radiometric filter-binding kinase assay, Kinase HotSpot
Details in all cases: compound 0.5 µM; ATP 10 µM
[1] = target: MKNK2 (human) (UniProt Q9HBH9)
[2] = target: STK17A (human) (UniProt Q9UEE5)
[3] = target: CDK2 CCNA2 (human) (UniProt P24941+P20248)
[4] = target: OXSR1 (human) (UniProt O95747)
[5] = target: CDK4 CCND1 (human) (UniProt P24385+P11802)
[6] = target: HIPK4 (human) (UniProt Q8NE63)
[7] = target: RPS6KA3 KD1 KD2 (human) (UniProt P51812)
[8] = target: NTRK2 (human) (UniProt Q16620)
[9] = target: TYK2 JH1 catalytic (human) (UniProt P29597)
[10] = target: PRKD1 (human) (UniProt Q15139)
[11] = target: MAPKAPK2 (human) (UniProt P49137)
[12] = target: CSNK1G2 (human) (UniProt P78368)
[13] = target: MINK1 (human) (UniProt Q8N4C8)
[14] = target: AKT1 (human) (UniProt P31749)
[15] = target: CDK1 CCNA2 (human) (UniProt P06493+P20248)
[16] = target: IGF1R (human) (UniProt P08069)
[17] = target: LCK (human) (UniProt P06239)
[18] = target: TAOK3 (human) (UniProt Q9H2K8)
[19] = target: NUAK2 (human) (UniProt Q9H093)
[20] = target: NEK4 (human) (UniProt P51957)
[21] = target: FRK (human) (UniProt P42685)
[22] = target: KIT (human) (UniProt P10721)
[23] = target: BRSK2 (human) (UniProt Q8IWQ3)
[24] = target: MARK3 (human) (UniProt P27448)
[25] = target: CSK (human) (UniProt P41240)
[26] = target: ABL2 (human) (UniProt P42684)
[27] = target: GSG2 (human) (UniProt Q8TF76)
[28] = target: EPHA2 (human) (UniProt P29317)
[29] = target: CSNK2A2 (human) (UniProt P19784)
[30] = target: FLT3 (human) (UniProt P36888)
[31] = target: EPHB1 (human) (UniProt P54762)
[32] = target: GRK6 (human) (UniProt P43250)
[33] = target: PIM3 (human) (UniProt Q86V86)
[34] = target: MARK1 (human) (UniProt Q9P0L2)
[35] = target: MAP4K2 (human) (UniProt Q12851)
[36] = target: AURKB (human) (UniProt Q96GD4)
[37] = target: CSNK1E (human) (UniProt P49674)
[38] = target: PIM1 (human) (UniProt P11309)
[39] = target: ACVRL1 (human) (UniProt P37023)
[40] = target: PRKCB1 (human) (UniProt P05771)
[41] = target: CHEK2 (human) (UniProt O96017)
[42] = target: STK39 (human) (UniProt Q9UEW8)

EPHA2 (human), sequence (P29317 whole entry, looked up): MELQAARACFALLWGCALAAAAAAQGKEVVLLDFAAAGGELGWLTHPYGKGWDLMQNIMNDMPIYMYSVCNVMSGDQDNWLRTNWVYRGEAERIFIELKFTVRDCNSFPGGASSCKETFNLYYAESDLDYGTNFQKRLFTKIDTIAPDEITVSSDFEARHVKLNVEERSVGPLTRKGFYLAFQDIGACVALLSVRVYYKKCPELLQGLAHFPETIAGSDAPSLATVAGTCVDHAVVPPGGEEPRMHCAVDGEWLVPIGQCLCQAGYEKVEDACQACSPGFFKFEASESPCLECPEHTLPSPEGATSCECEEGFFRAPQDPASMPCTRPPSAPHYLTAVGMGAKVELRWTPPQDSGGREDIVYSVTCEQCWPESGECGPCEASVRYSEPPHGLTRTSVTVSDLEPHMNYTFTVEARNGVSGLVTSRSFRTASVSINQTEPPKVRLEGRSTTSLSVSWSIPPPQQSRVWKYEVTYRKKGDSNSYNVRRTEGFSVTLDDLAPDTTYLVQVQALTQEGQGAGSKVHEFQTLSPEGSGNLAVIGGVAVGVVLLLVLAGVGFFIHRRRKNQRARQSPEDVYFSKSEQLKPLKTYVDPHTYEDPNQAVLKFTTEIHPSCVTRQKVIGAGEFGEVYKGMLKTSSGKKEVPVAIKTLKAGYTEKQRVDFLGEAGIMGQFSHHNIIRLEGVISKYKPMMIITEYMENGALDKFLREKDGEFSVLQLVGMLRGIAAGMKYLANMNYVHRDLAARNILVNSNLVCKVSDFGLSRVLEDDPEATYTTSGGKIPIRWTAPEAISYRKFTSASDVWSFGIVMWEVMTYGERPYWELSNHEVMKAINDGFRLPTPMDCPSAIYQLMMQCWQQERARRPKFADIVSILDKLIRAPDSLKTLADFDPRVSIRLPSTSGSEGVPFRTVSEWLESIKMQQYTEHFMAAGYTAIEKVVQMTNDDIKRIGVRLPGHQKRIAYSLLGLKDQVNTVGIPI
MARK3 (human), sequence (P27448 whole entry, looked up): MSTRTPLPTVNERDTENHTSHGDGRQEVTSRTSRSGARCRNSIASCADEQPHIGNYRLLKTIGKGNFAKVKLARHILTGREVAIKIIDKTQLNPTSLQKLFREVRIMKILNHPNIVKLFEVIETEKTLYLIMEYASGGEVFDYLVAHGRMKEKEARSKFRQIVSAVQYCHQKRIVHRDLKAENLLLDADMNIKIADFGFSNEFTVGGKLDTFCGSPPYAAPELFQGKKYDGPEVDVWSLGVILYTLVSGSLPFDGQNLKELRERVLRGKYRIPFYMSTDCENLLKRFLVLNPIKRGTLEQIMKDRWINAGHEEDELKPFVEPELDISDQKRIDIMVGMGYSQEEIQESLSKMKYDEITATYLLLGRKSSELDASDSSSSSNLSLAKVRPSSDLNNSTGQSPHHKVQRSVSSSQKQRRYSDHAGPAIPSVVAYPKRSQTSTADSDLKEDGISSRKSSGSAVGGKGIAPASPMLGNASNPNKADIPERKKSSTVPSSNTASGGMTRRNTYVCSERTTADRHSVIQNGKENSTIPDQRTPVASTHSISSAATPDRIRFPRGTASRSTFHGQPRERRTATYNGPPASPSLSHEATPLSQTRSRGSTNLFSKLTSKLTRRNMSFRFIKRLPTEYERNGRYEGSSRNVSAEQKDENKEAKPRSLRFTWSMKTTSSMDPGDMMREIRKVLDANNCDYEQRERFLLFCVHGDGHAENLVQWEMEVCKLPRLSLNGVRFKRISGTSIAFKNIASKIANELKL
FRK (human), sequence (P42685 whole entry, looked up): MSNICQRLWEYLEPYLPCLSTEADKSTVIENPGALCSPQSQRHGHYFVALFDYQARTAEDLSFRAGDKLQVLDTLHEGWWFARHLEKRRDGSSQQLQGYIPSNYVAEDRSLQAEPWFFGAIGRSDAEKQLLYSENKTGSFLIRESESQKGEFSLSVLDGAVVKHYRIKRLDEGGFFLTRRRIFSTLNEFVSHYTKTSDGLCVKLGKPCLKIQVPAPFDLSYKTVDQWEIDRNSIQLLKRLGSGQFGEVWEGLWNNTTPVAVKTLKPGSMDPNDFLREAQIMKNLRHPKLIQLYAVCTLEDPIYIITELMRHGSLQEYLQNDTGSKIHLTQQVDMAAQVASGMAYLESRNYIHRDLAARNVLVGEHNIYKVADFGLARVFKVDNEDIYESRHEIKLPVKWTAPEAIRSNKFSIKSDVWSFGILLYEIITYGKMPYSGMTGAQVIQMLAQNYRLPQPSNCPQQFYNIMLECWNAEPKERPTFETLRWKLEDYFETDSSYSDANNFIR
CDK1 CCNA2 (human), sequence (P06493 whole entry, looked up): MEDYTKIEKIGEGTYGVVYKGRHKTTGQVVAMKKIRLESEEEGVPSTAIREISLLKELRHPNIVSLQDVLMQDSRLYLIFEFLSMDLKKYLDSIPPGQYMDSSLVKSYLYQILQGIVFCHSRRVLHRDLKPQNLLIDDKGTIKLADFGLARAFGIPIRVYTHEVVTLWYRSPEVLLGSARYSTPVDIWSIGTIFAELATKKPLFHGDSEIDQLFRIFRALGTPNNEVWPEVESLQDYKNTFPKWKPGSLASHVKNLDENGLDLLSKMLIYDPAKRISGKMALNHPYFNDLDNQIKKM
CDK1 CCNA2 (human), sequence (P20248 whole entry, looked up): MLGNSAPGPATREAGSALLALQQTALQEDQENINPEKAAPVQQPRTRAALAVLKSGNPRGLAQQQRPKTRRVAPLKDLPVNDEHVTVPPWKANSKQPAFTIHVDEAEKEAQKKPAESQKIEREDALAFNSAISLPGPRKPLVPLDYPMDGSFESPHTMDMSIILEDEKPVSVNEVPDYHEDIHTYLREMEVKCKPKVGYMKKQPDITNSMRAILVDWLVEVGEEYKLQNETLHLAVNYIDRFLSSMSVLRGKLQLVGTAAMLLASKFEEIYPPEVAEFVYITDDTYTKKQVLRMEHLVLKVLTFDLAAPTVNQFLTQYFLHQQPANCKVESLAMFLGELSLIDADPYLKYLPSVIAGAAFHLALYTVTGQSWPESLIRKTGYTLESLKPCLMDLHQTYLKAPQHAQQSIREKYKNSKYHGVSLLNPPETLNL
NEK4 (human), sequence (P51957 whole entry, looked up): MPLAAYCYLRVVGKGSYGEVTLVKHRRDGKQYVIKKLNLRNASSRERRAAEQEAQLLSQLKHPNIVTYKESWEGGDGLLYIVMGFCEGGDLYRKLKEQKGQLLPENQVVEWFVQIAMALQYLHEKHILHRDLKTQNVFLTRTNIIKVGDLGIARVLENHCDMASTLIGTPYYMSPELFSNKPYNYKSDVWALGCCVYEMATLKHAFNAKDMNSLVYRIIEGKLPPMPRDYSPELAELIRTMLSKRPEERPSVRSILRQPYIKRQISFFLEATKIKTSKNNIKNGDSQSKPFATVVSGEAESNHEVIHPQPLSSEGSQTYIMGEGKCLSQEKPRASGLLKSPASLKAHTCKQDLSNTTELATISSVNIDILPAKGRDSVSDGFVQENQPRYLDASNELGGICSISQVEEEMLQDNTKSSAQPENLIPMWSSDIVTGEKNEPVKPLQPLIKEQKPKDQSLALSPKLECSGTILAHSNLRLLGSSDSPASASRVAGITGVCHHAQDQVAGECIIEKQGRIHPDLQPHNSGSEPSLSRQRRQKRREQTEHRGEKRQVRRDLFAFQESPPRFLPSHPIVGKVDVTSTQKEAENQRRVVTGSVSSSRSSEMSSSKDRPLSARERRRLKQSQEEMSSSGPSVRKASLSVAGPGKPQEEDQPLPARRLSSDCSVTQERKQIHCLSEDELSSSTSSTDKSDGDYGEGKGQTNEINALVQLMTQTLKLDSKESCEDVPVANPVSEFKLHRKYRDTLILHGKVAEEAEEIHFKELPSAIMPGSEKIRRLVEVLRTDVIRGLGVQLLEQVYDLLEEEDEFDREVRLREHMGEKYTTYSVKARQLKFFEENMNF
AURKB (human), sequence (Q96GD4 whole entry, looked up): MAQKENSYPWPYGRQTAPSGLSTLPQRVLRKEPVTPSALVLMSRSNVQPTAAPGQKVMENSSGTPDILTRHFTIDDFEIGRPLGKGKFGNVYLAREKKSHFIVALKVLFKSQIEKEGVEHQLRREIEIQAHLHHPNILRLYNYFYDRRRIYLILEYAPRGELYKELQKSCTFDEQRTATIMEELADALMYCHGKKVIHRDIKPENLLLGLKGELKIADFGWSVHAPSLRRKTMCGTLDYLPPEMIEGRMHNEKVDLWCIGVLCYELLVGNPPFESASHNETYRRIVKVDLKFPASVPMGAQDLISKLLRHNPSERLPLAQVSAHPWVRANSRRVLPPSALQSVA
AKT1 (human), sequence (P31749 whole entry, looked up): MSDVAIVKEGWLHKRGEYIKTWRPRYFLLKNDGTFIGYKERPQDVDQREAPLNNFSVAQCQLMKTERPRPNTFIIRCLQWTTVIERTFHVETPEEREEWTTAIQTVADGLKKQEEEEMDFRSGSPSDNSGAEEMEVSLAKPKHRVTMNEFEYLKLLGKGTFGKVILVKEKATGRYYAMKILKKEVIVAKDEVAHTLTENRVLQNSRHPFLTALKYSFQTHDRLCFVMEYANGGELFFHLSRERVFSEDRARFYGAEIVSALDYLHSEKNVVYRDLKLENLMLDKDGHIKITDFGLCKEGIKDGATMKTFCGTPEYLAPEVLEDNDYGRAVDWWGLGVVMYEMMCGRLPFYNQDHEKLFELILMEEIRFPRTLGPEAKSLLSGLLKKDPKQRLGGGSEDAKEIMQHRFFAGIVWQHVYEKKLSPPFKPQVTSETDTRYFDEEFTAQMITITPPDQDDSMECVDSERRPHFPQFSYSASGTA
CDK2 CCNA2 (human), sequence (P20248 whole entry, looked up, other chains not shown): as the sequence (P20248 whole entry, looked up) above

Question: Which results are given for `Cn1cnc2cc3c(Nc4cccc(Br)c4)ncnc3cc21`?
Answer: residual activity [1]: 32.2%; residual activity [2]: 82.5%; residual activity [3]: 90.1%; residual activity [4]: 94.6%; residual activity [5]: 84%; residual activity [6]: 88.6%; residual activity [7]: 105%; residual activity [8]: 98.9%; residual activity [9]: 112%; residual activity [10]: 99.4%; residual activity [11]: 104%; residual activity [12]: 89.2%; residual activity [13]: 82.1%; residual activity [14]: 89.1%; residual activity [15]: 95.8%; residual activity [16]: 102%; residual activity [17]: 47.7%; residual activity [18]: 97.6%; residual activity [19]: 102%; residual activity [20]: 96.8%; residual activity [21]: 93.6%; residual activity [22]: 78.6%; residual activity [23]: 88.6%; residual activity [24]: 104%; residual activity [25]: 88.1%; residual activity [26]: 37%; residual activity [27]: 89.4%; residual activity [28]: 81.8%; residual activity [29]: 91.7%; residual activity [30]: 33.4%; residual activity [31]: 72.2%; residual activity [32]: 107%; residual activity [33]: 104%; residual activity [34]: 94.3%; residual activity [35]: 90.4%; residual activity [36]: 78.2%; residual activity [37]: 90.3%; residual activity [38]: 73.8%; residual activity [39]: 102%; residual activity [40]: 100%; residual activity [41]: 101%; residual activity [42]: 111%

Question: Which results are given for `Nc1nccc(-c2c(-c3ccc(F)cc3)ncn2C2CCNCC2)n1`?
Answer: residual activity [1]: 92.1%; residual activity [2]: 97.8%; residual activity [3]: 100%; residual activity [4]: 101%; residual activity [5]: 99.9%; residual activity [6]: 96.6%; residual activity [7]: 92.2%; residual activity [8]: 103%; residual activity [9]: 99.8%; residual activity [10]: 54.6%; residual activity [11]: 97.6%; residual activity [12]: 119%; residual activity [13]: 96.1%; residual activity [14]: 99.9%; residual activity [15]: 92.7%; residual activity [16]: 104%; residual activity [17]: 80.1%; residual activity [18]: 95.3%; residual activity [19]: 122%; residual activity [20]: 99.5%; residual activity [21]: 95.4%; residual activity [22]: 98.4%; residual activity [23]: 96.6%; residual activity [24]: 103%; residual activity [25]: 90.8%; residual activity [26]: 95.1%; residual activity [27]: 91.4%; residual activity [28]: 102%; residual activity [29]: 92.2%; residual activity [30]: 90.3%; residual activity [31]: 99.9%; residual activity [32]: 98.2%; residual activity [33]: 96%; residual activity [34]: 97.9%; residual activity [35]: 102%; residual activity [36]: 103%; residual activity [37]: 2.39%; residual activity [38]: 97%; residual activity [39]: 95.6%; residual activity [40]: 91%; residual activity [41]: 101%; residual activity [42]: 93.5%

— the kinase profiling compilation of Christmann-Franck et al. (2016)
